Measured values from ChEMBL document CHEMBL3885881, “DrugMatrix”.

Species: Rattus norvegicus
Test: DrugMatrix - Regimen: Daily Repeat
Assay type: toxicity, organism-based, Sprague-Dawley
Design: regimen Daily Repeat, gender Male, age 6-8 weeks
Details: in vivo, po, route oral GAVAGE, vehicle 100 % WATER; for ABSOLUTE BASOPHIL / ABSOLUTE EOSINOPHIL / ABSOLUTE LYMPHOCYTE / ABSOLUTE MONOCYTE / ABSOLUTE SEGMENTED NEUTROPHIL / BASOPHIL / EOSINOPHIL / ERYTHROCYTE COUNT / HEMATOCRIT / HEMOGLOBIN / LEUKOCYTE COUNT / LYMPHOCYTE / MEAN CORPUSCULAR HEMOGLOBIN / MEAN CORPUSCULAR HEMOGLOBIN CONCENTRATION / MEAN CORPUSCULAR VOLUME / MONOCYTE / NEUTROPHIL / NUCLEATED RED BLOOD CELLS / PLATELET COUNT: tissue Blood; for ALANINE AMINOTRANSFERASE / ALBUMIN / ALKALINE PHOSPHATASE / ASPARTATE AMINOTRANSFERASE / BLOOD UREA NITROGEN / CARBON DIOXIDE / CHLORIDE / CHOLESTEROL / CREATINE PHOSPHOKINASE / CREATININE / GLUCOSE / LACTATE DEHYDROGENASE / LIPASE / PHOSPHORUS / POTASSIUM / SODIUM / TOTAL BILIRUBIN / TOTAL PROTEIN / URIC ACID: tissue Plasma
[1] = 0 mg/kg, 72 h, dose level Control, time 3 day
[2] = 0 mg/kg, 120 h, dose level Control, time 5 day
[3] = 900 mg/kg, 72 h, dose level Low, time 3 day

Clc1ccc(C(c2ccccc2Cl)C(Cl)Cl)cc1 (centres undefined) [MITOTANE]
ABSOLUTE BASOPHIL [1]: 0 CELLS/uL
ABSOLUTE EOSINOPHIL [1]: 58.83 CELLS/uL
ABSOLUTE LYMPHOCYTE [1]: 11823.5 CELLS/uL
ABSOLUTE MONOCYTE [1]: 169 CELLS/uL
ABSOLUTE SEGMENTED NEUTROPHIL [1]: 815.33 CELLS/uL
BASOPHIL [1]: 0%
EOSINOPHIL [1]: 0.5%
ERYTHROCYTE COUNT [1]: 5.52 x10E6/uL
HEMATOCRIT [1]: 35.77%
HEMOGLOBIN [1]: 14.28 G/DL
LEUKOCYTE COUNT [1]: 12.87 x10E3/uL
LYMPHOCYTE [1]: 91.67%
MEAN CORPUSCULAR HEMOGLOBIN [1]: 25.92 pg
MEAN CORPUSCULAR HEMOGLOBIN CONCENTRATION [1]: 39.95 G/DL
MEAN CORPUSCULAR VOLUME [1]: 64.85 fL
MONOCYTE [1]: 1.33%
NEUTROPHIL [1]: 6.5%
NUCLEATED RED BLOOD CELLS [1]: 0 /100WBC
PLATELET COUNT [1]: 1246.17 x10E3/uL
ALANINE AMINOTRANSFERASE [1]: 66 u/L
ALBUMIN [1]: 4.25 G/DL
ALKALINE PHOSPHATASE [1]: 416 u/L
ASPARTATE AMINOTRANSFERASE [1]: 106.17 u/L
BLOOD UREA NITROGEN [1]: 12.67 mg/dL
CARBON DIOXIDE [1]: 31.83 mmol/L
CHLORIDE [1]: 102.5 MEQ/L
CHOLESTEROL [1]: 69 mg/dL
CREATINE PHOSPHOKINASE [1]: 601.83 u/L
CREATININE [1]: 0.18 mg/dL
GLUCOSE [1]: 154.5 mg/dL
LACTATE DEHYDROGENASE [1]: 301.83 u/L
LIPASE [1]: 11.17 u/L
PHOSPHORUS [1]: 12.08 mg/dL
POTASSIUM [1]: 6.12 MEQ/L
SODIUM [1]: 145.2 MEQ/L
TOTAL BILIRUBIN [1]: 0.17 mg/dL
TOTAL PROTEIN [1]: 6.1 G/DL
URIC ACID [1]: 1.57 mg/dL
ABSOLUTE BASOPHIL [2]: 0 CELLS/uL
ABSOLUTE EOSINOPHIL [2]: 19.33 CELLS/uL
ABSOLUTE LYMPHOCYTE [2]: 12577.83 CELLS/uL
ABSOLUTE MONOCYTE [2]: 106.33 CELLS/uL
ABSOLUTE SEGMENTED NEUTROPHIL [2]: 896.5 CELLS/uL
BASOPHIL [2]: 0%
EOSINOPHIL [2]: 0.17%
ERYTHROCYTE COUNT [2]: 5.84 x10E6/uL
HEMATOCRIT [2]: 36.88%
HEMOGLOBIN [2]: 14.48 G/DL
LEUKOCYTE COUNT [2]: 13.6 x10E3/uL
LYMPHOCYTE [2]: 92.17%
MEAN CORPUSCULAR HEMOGLOBIN [2]: 24.85 pg
MEAN CORPUSCULAR HEMOGLOBIN CONCENTRATION [2]: 39.3 G/DL
MEAN CORPUSCULAR VOLUME [2]: 63.23 fL
MONOCYTE [2]: 0.83%
NEUTROPHIL [2]: 6.83%
NUCLEATED RED BLOOD CELLS [2]: 0 /100WBC
PLATELET COUNT [2]: 1223.5 x10E3/uL
ALANINE AMINOTRANSFERASE [2]: 55.33 u/L
ALBUMIN [2]: 4.08 G/DL
ALKALINE PHOSPHATASE [2]: 355.5 u/L
ASPARTATE AMINOTRANSFERASE [2]: 87.67 u/L
BLOOD UREA NITROGEN [2]: 15.33 mg/dL
CARBON DIOXIDE [2]: 33.83 mmol/L
CHLORIDE [2]: 99.67 MEQ/L
CHOLESTEROL [2]: 72.17 mg/dL
CREATINE PHOSPHOKINASE [2]: 268.33 u/L
CREATININE [2]: 0.15 mg/dL
GLUCOSE [2]: 152.5 mg/dL
LACTATE DEHYDROGENASE [2]: 212.67 u/L
LIPASE [2]: 10.83 u/L
PHOSPHORUS [2]: 11.65 mg/dL
POTASSIUM [2]: 6.73 MEQ/L
SODIUM [2]: 142.43 MEQ/L
TOTAL BILIRUBIN [2]: 0.23 mg/dL
TOTAL PROTEIN [2]: 6.07 G/DL
URIC ACID [2]: 1.7 mg/dL
ABSOLUTE BASOPHIL [3]: 0 CELLS/uL
ABSOLUTE EOSINOPHIL [3]: 0 CELLS/uL
ABSOLUTE LYMPHOCYTE [3]: 16524 CELLS/uL
ABSOLUTE MONOCYTE [3]: 175 CELLS/uL
ABSOLUTE SEGMENTED NEUTROPHIL [3]: 1001 CELLS/uL
BASOPHIL [3]: 0%
EOSINOPHIL [3]: 0%
ERYTHROCYTE COUNT [3]: 5.49 x10E6/uL
HEMATOCRIT [3]: 34.53%
HEMOGLOBIN [3]: 13.73 G/DL
LEUKOCYTE COUNT [3]: 17.7 x10E3/uL
LYMPHOCYTE [3]: 93.33%
MEAN CORPUSCULAR HEMOGLOBIN [3]: 25.03 pg
MEAN CORPUSCULAR HEMOGLOBIN CONCENTRATION [3]: 39.8 G/DL
MEAN CORPUSCULAR VOLUME [3]: 62.9 fL
MONOCYTE [3]: 1%
NEUTROPHIL [3]: 5.67%
NUCLEATED RED BLOOD CELLS [3]: 0 /100WBC
PLATELET COUNT [3]: 1289.67 x10E3/uL
ALANINE AMINOTRANSFERASE [3]: 54 u/L
ALBUMIN [3]: 4.23 G/DL
ALKALINE PHOSPHATASE [3]: 331.33 u/L
ASPARTATE AMINOTRANSFERASE [3]: 74.67 u/L
BLOOD UREA NITROGEN [3]: 13 mg/dL
CARBON DIOXIDE [3]: 33.67 mmol/L
CHLORIDE [3]: 101.67 MEQ/L
CHOLESTEROL [3]: 70.33 mg/dL
CREATINE PHOSPHOKINASE [3]: 271 u/L
CREATININE [3]: 0.45 mg/dL
GLUCOSE [3]: 144.67 mg/dL
LACTATE DEHYDROGENASE [3]: 135 u/L
LIPASE [3]: 12.67 u/L
PHOSPHORUS [3]: 12.8 mg/dL
POTASSIUM [3]: 6.89 MEQ/L
SODIUM [3]: 145.93 MEQ/L
TOTAL BILIRUBIN [3]: 0.1 mg/dL
TOTAL PROTEIN [3]: 6.03 G/DL
URIC ACID [3]: 1.6 mg/dL
